The values that follow come from ChEMBL document CHEMBL1157039, “Synthesis and characterization of novel fatty acid analogs of cholesterol: in vitro antimicrobial activity” (2010).

The subject of assay [1] is Streptococcus mutans. Kind of assay: Antibacterial activity against Streptococcus mutans UA159 MTCC 497 after 24 hrs by disk diffusion method. The class given is functional.
Assay [2] concerns Streptococcus pyogenes. Kind of assay: Antibacterial activity against recultured Streptococcus pyogenes after 24 hrs by disk diffusion method. The class given is functional. Background: A growth-free zone around the sample is the usual read-out of agar diffusion tests.
Assay [3] relates to Staphylococcus aureus. Kind of assay: Antibacterial activity against Staphylococcus aureus ATCC 25923 after 24 hrs by disk diffusion method. The class given is functional.
The subject of assay [4] is Pseudomonas aeruginosa. The experiment in a line: Antibacterial activity against Pseudomonas aeruginosa ATCC 27853 after 24 hrs by disk diffusion method. The assay is classed as functional.
For assay [5], the system named is Salmonella enterica. The experiment in a line: Antibacterial activity against recultured Salmonella Typhimurium after 24 hrs by disk diffusion method. The assay is classed as functional, Salmonella enterica subsp. enterica serovar Typhimurium.
Assay [6] concerns Escherichia coli. The experiment in a line: Antibacterial activity against Escherichia coli ATCC 25922 after 24 hrs by disk diffusion method. The class given is functional.
The subject of assay [7] is Streptococcus mutans. Kind of assay: Antibacterial activity against Streptococcus mutans UA159 MTCC 497 after 24 hrs by microdilution method. The class given is functional. The note with it: UA159 MTCC 497, 24 h. In general terms: Dilution methods test growth across graded concentrations, often in twofold steps.
Assay [8] has as its system Streptococcus pyogenes. The experiment in a line: Antibacterial activity against recultured Streptococcus pyogenes after 24 hrs by microdilution method. The class given is functional.
Assay [9] deals with Staphylococcus aureus. Kind of assay: Antibacterial activity against Staphylococcus aureus ATCC 25923 after 24 hrs by microdilution method. The class given is functional. The conditions noted are these: ATCC 25923, 24 h.
The subject of assay [10] is Pseudomonas aeruginosa. The experiment in a line: Antibacterial activity against Pseudomonas aeruginosa ATCC 27853 after 24 hrs by microdilution method. The assay is classed as functional. The note with it: ATCC 27853, 24 h.
Assay [11] deals with Salmonella enterica. The experiment in a line: Antibacterial activity against recultured Salmonella Typhimurium after 24 hrs by microdilution method. The class given is functional, Salmonella enterica subsp. enterica serovar Typhimurium.
In assay [12] the test system is Escherichia coli. The experiment in a line: Antibacterial activity against Escherichia coli ATCC 25922 after 24 hrs by microdilution method. The class given is functional. The note with it: ATCC 25922, 24 h.
Assay [13] has as its system Candida albicans. Kind of assay: Antifungal activity against Candida albicans ATCC 24433 after 48 to 72 hrs by disk diffusion method. The assay is classed as functional.
Assay [14] concerns Pichia kudriavzevii. The experiment in a line: Antifungal activity against Candida krusei ATCC 6528 after 48 to 72 hrs by disk diffusion method. The assay is classed as functional.
Assay [15] concerns Candida parapsilosis. The experiment in a line: Antifungal activity against Candida parapsilosis ATCC 22019 after 48 to 72 hrs by disk diffusion method. The class given is functional.
The subject of assay [16] is Cryptococcus neoformans. The experiment in a line: Antifungal activity Cryptococcus neoformans after 48 to 72 hrs by disk diffusion method. The class given is functional.
Assay [17] relates to Candida albicans. Kind of assay: Antifungal activity against Candida albicans ATCC 24433 after 48 to 72 hrs by microdilution method. The assay is classed as functional.
In assay [18] the test system is Pichia kudriavzevii. Kind of assay: Antifungal activity against Candida krusei ATCC 6528 after 48 to 72 hrs by microdilution method. The assay is classed as functional.
Assay [19] deals with Candida parapsilosis. Kind of assay: Antifungal activity against Candida parapsilosis ATCC 22019 after 48 to 72 hrs by microdilution method. The class given is functional. The note with it: Lodderomyces parapsilosis.
Assay [20] has as its system Cryptococcus neoformans. Kind of assay: Antifungal activity Cryptococcus neoformans after 48 to 72 hrs by microdilution method. The class given is functional.

Values after ≈ are worked out from the molar mass of the structure shown.

`C=CCCCCCCCCC(=O)O[C@H]1CC[C@@]2(C)C(=CC[C@H]3[C@@H]4CC[C@H]([C@H](C)CCCC(C)C)[C@@]4(C)CC[C@@H]32)C1`: the “diameter of the inhibition zone (DIZ)” value is reported as 20.5 mm in the assay on Streptococcus mutans [1]; 19.2 mm with Streptococcus pyogenes [2]; 19.8 mm with Staphylococcus aureus [3]; 16.2 mm in the assay on Pseudomonas aeruginosa [4]; 16.4 mm in the assay on Salmonella enterica [5]; 16.5 mm in the assay on Escherichia coli [6]. In addition, the “diameter of the inhibition zone (DIZ)” value is listed as 18.3 mm with Candida albicans [13], 16.1 mm with Pichia kudriavzevii [14], 15.1 mm in the assay with Candida parapsilosis [15] and 12.1 mm in the assay with Cryptococcus neoformans [16]. Moreover, the MIC with Streptococcus mutans [7] turned out to be 32 µg/mL (≈ 57.9 µM); against Streptococcus pyogenes [8], 32 µg/mL (≈ 57.9 µM); against Staphylococcus aureus [9], 64 µg/mL (≈ 116 µM); against Pseudomonas aeruginosa [10], 32 µg/mL (≈ 57.9 µM); against Salmonella enterica [11], 128 µg/mL (≈ 231 µM); against Escherichia coli [12] it was 128 µg/mL (≈ 231 µM). For the same compound, the MIC with Candida albicans [17] was 2 µg/mL (≈ 3.62 µM); against Pichia kudriavzevii [18] it was 256 µg/mL (≈ 463 µM); in the assay with Candida parapsilosis [19] it was 32 µg/mL (≈ 57.9 µM); with Cryptococcus neoformans [20] it was 128 µg/mL (≈ 231 µM).
`CC(C)CCC[C@@H](C)[C@H]1CC[C@H]2[C@@H]3CC=C4C[C@@H](OC(=O)CCCCCCCCC(Br)CBr)CC[C@]4(C)[C@H]3CC[C@]12C` (stereo not given in full): the “diameter of the inhibition zone (DIZ)” value is 20.3 mm in the assay on Streptococcus mutans [1]; 18.8 mm with Streptococcus pyogenes [2]; 19.5 mm in the assay on Staphylococcus aureus [3]; 15.1 mm with Pseudomonas aeruginosa [4]; 16.1 mm in the assay on Salmonella enterica [5]; 16.4 mm in the assay on Escherichia coli [6]. The “diameter of the inhibition zone (DIZ)” value with Candida albicans [13] is listed as 19.5 mm; with Pichia kudriavzevii [14] it was 17.5 mm; with Candida parapsilosis [15] it was 16.8 mm; with Cryptococcus neoformans [16], 15.9 mm. Also, the MIC came to 32 µg/mL (≈ 44.9 µM) in the assay on Streptococcus mutans [7]; 32 µg/mL (≈ 44.9 µM) against Streptococcus pyogenes [8]; 64 µg/mL (≈ 89.8 µM) against Staphylococcus aureus [9]; 128 µg/mL (≈ 180 µM) in the assay with Pseudomonas aeruginosa [10]; 128 µg/mL (≈ 180 µM) in the assay with Salmonella enterica [11]; 128 µg/mL (≈ 180 µM) in the assay on Escherichia coli [12]. The MIC with Candida albicans [17] came to 1 µg/mL (≈ 1.4 µM); against Pichia kudriavzevii [18], 128 µg/mL (≈ 180 µM); against Candida parapsilosis [19], 8 µg/mL (≈ 11.2 µM); in the assay on Cryptococcus neoformans [20], 32 µg/mL (≈ 44.9 µM).
Take `C=CCCCCCCCCC(=O)O[C@H]1CC[C@]2(C)[C@H]3CC[C@]4(C)[C@@H]([C@H](C)CCCC(C)C)CC[C@H]4[C@@H]3C[C@@H](Br)[C@@]2(Br)C1`: the “diameter of the inhibition zone (DIZ)” value amounted to 21.5 mm in the assay on Streptococcus mutans [1]; 20.2 mm with Streptococcus pyogenes [2]; 20.1 mm in the assay with Staphylococcus aureus [3]; 17.1 mm in the assay on Pseudomonas aeruginosa [4]; 16.2 mm in the assay on Salmonella enterica [5]; 19.8 mm in the assay with Escherichia coli [6]. For the same compound, the “diameter of the inhibition zone (DIZ)” value in the assay with Candida albicans [13] stood at 15.5 mm; in the assay on Pichia kudriavzevii [14], 13.4 mm; with Candida parapsilosis [15] it was 12.8 mm; in the assay with Cryptococcus neoformans [16], 12.7 mm. For the same compound, the MIC against Streptococcus mutans [7] amounted to 32 µg/mL (≈ 44.9 µM); in the assay on Streptococcus pyogenes [8], 64 µg/mL (≈ 89.8 µM); against Staphylococcus aureus [9], 64 µg/mL (≈ 89.8 µM); in the assay on Pseudomonas aeruginosa [10], 512 µg/mL (≈ 718 µM); against Salmonella enterica [11] it was 128 µg/mL (≈ 180 µM); in the assay on Escherichia coli [12] it was 128 µg/mL (≈ 180 µM). Moreover, the MIC came to 16 µg/mL (≈ 22.4 µM) against Candida albicans [17], 256 µg/mL (≈ 359 µM) in the assay with Pichia kudriavzevii [18], 256 µg/mL (≈ 359 µM) in the assay on Candida parapsilosis [19] and 128 µg/mL (≈ 180 µM) against Cryptococcus neoformans [20].

What is called MIC is the smallest concentration in the dilution series that meets the test's criterion for growth inhibition. Read a high MIC as weaker potency.
